Experimental data published in patent US7550463B2, “Carbamoylpyridone derivatives having inhibitory activity against HIV integrase” (Shionogi & Co., Ltd., priority 2004, dated 2009).

Legend:
HIV integrase = HIV integrase (Human immunodeficiency virus type 1 group M subtype B, UniProt P04585); experiment: HIV integrase inhibitory activity assay (immunoplate, substrate DNA / target DNA, OD 405 nm); type: biochemical; conditions: read-out: Integrase inhibitory activity (IC50, ng/ml) (converted)
Experimental: The HIV integrase inhibitory activity was examined based on an assay method shown below.
(1) Preparation of DNA Solution
According to the same method as the method described in Test Example 1 of WO 2004/024693, a substrate DNA solution (2 pmol/μl) and a target DNA solution (5 pmol/μl) were prepared. […] Each sequence of a substrate DNA and a target DNA is as described in the same Test Example.
(2) Measurement of Inhibition Rate (IC50 Value)
Streptavidin (manufactured by Vector Laboratories) was dissolved in a 0. 1M carbonate buffer (composition: 90 mM Na2CO3, 10 mM NaHCO3 )to a concentration of 40 μg/ml. Each 50 μl of this solution was added to a well of an immunoplate (manufactured by NUNC), and this was allowed to stand at 4° C. overnight to perform adsorption. Then, each well was washed with, a phosphate buffer (composition: 13.7 mM NaCl, 0.27 mM KCl, 0.43 mM. Na2HPO4, 0.14 mM KH2PO4) two times, 300 μl of a phosphate buffer containing 1% skim milk was added, and blocking was performed for 30 minutes. […]
Each plate was incubated at 30° C. for 10 minutes, and the reaction solution was discarded, followed by washing with a phosphate buffer two times. […] Inhibition rate (%)=100[1−{(C abs.−NC abs.)/(PC abs.−NC abs.)}] • C abs.; absorbance of well of compound • NC abs.: absorbance of NC • PC abs.: absorbance of PC

Structure (SMILES) | melting point [°C] | IC50 (HIV integrase) [nM]
O=C(NCc1ccc(F)cc1)c1[nH]cc(C(=O)NCc2ccc(F)cc2)c(=O)c1O | 279 to 280 | –
O=C(O)c1[nH]cc(C(=O)NCc2ccc(F)cc2)c(=O)c1O [Compound A-3] | – | 10.1
COC(=O)c1[nH]cc(C(=O)NCc2ccc(F)cc2)c(=O)c1O [Compound A-1a, Methyl 5-(4-fluorobenzylcarbamoyl)-3-hydroxy-4-oxo-1,4-dihydropyridine-2-carboxylate] | – | 20
